The nature of series [1]: Mean particle size of salmeterol xinafoate/HFA 134a suspension by image analysis (Galai CIS-100 particle size analyser). It is filed as physicochemical. Conditions: for Mean Length: salmeterol xinafoate in HFA 134a, 25 μg per actuation, 10% w/w (relative to drug) of surfactant compound, crimped glass bottles, equivalent diameter, average of 4 determinations; for spread of the range of particles size: salmeterol xinafoate in HFA 134a with 10% w/w surfactant compound, versus control without surfactant. As to the method:
Salmeterol xinafoate formulations in HFA 134a, of strength 25 μg per actuation, and 10% w/w (relative to drug) of the relevant surfactant compound of formula (I) were prepared in crimped glass bottles using salmeterol xinafoate (8.7 mg), HFA 134a (18 g) and the relevant compound (0.87 mg). The control was prepared without the addition of a surfactant. […] In this measurement, particle size is represented as the equivalent diameter of a circle of equal area to the object. The mean is the average of 4 determinations. The particle size measurement was obtained by transferring the suspensions to a pressurised cell, and video-imaging the sample under shear via a microscope objective. The equivalent diameter is defined as the diameter of a circle of equal area to the object.
The mean equivalent diameter can be weighted by number, length or volume. e.g. For three particles with equivalent diameters of x, y and z:
This is seen by the marked reduction in average particle size (“mean length”) when a compound of formula (I) is incorporated into the formulation. Futhermore the spread of the range of particles size was reduced in some cases (especially Examples 5 and 7).

The nature of series [2]: Emitted dose and fine particle mass by Anderson Cascade Impactor stack. In kind it is physicochemical. The conditions noted are these: salmeterol xinafoate in HFA 134a, 25 μg per actuation, 10% w/w surfactant compound, aluminum canisters; beginning of use; mean of two determinations. On the procedure:
Data were obtained at the beginning of use of the device. Salmeterol xinafoate formulations in HFA 134a, of strength 25 μg per actuation, and 10% w/w (relative to drug) of the relevant surfactant compound of formula (I) were prepared in standard aluminum canisters. Control 1 was prepared at the same time as samples containing examples 2, 5, 6 and 7 whereas control 2 was prepared separately. The analysis of aerosol formulations using such stacks is well known to person skilled in the art. The results are presented as the mean of two determinations.
These samples also show an increase in the absolute value of the FPM fraction in most cases.

Regarding `COCCOCCOCCOCCOCCOCCOCC(=O)O` [Example 2, 2,5,8,11,14,17,20-Heptaoxadocosan-22-oic acid], in series [1], the “Mean Length” value came out at 27.1 μm. In series [2], the “% FPM” value was 38.8%; the “FPM (fine particle mass, sum of stages 3 to 5)” value is 8.7 µg; the “Total Dose Emitted” value is 22.4 µg; the “Total Emitted Ex-Device” value was found to be 18.8 µg.

Consider `O=C(O)COCCOCCOCCOCCOCCOCCOCC(F)(F)F` [Example 5, 23,23,23-Trifluoro-3,6,9,12,15,18,21-heptaoxatricosan-1-oic acid], for which, in series [1], the “spread of the range of particles size” value was “reduced” and the “Mean Length” value is 23.8 μm. In series [2], the “% FPM” value is reported as 37.2%; the “FPM (fine particle mass, sum of stages 3 to 5)” value was found to be 8.6 µg; the “Total Dose Emitted” value was determined as 23.0 µg; the “Total Emitted Ex-Device” value was 19.4 µg.

As to `O=C(O)COCCOCCOCC(F)(F)F` [Example 6, {[2-({2-[(2,2,2-Trifluoroethyl)oxy]ethyl}oxy)ethyl]oxy}acetic acid], the “Mean Length” value in series [1] came out at 23.7 μm. In series [2], the “% FPM” value is given as 33.2%; the “FPM (fine particle mass, sum of stages 3 to 5)” value came out at 7.1 µg; the “Total Dose Emitted” value worked out at 21.4 µg; the “Total Emitted Ex-Device” value turned out to be 17.9 µg.

As for `COCCOCCOCCOCCOCCOCCOCCOCCOCCOCC(=O)O` [Example 7, 2,5,8,11,14,17,20,23,26,29-Decaoxahentriacontan-31-oic acid], in series [1], the “spread of the range of particles size” value is given as “reduced” and the “Mean Length” value is 28.6 μm. Also, in series [2], the “% FPM” value is given as 38.7%; the “FPM (fine particle mass, sum of stages 3 to 5)” value was determined as 8.5 µg; the “Total Dose Emitted” value is 21.9 µg; the “Total Emitted Ex-Device” value came to 18.4 µg.
